# According to US7981892B2, “Disubstituted phthalazine hedgehog pathway antagonists” (Eli Lilly and Company, priority 2008, dated 2011):
# Counter-ions that a name gives are not always drawn.
# System: Gli1 transcript in Daoy cells stimulated with Shh conditioned media
# Experiment: Functional assay for measuring the inhibition of Gli1 in Daoy cells (bDNA assay of Gli1 transcript after Shh-conditioned media stimulation)
# Format: cell-based
# Settings: Homo sapiens; Daoy cells treated with Shh-CM, 24 hours incubation with compound, Gli1 transcript by bDNA luminescence
# Method: Biological activity is determined using a functional assay in Daoy neuronal cancer cells and measures levels of Gli1 ribonucleic, acid via a bDNA. (branched deoxyribonucleic acid) assay system (Panomies, Inc., Fremont, Calif.), Gli was originally discovered in a Glioblastoma cell line and encodes a zinc finger protein that is activated by Shh signaling. The maximum response is obtained by inducing Gli1 transcription in the Daoy cells with conditioned medium (HEK-293 cells stably expressing recombinant Shb) for 24 hours and. then measuring the amount of stimulated Gli1 transcript. […]
# The bDNA assay system utilizes the technology of branched-chain DNA to allow amplification of a target ribonucleic acid (transcript). […] The addition of a chemilumigenic substrate during the amplification step allows for detection using luminescence, […]
# Daoy cells are grown to conflunency in tissue culture T225-flasks in Daoy growth media containing Minimum Essential Medium (MEM) plus 10% Fetal Bovine Serum (FBS) with […] non-essential amino acids and 1 mM sodium pyruvate. The cells are removed from the T225-flasks using trypsin ethylenediaminetetraacetic acid (EDTA), centrifuged, resuspended in media, and then counted. […]
compound,measurement,value
"CN(C(=O)c1c(F)cccc1C(F)(F)F)C1CCN(c2nnc(-c3ccccc3)c3ccccc23)CC1 [Example 36, 2-Fluoro-N-methyl-N-(1-(4-phenylphthalazin-1-yl)piperidin-4-yl)-6-(trifluoromethyl)benzamide hydrochloride]",IC50,~2.37 nM
